Results on two compounds are retold here after US12466856B2, “Echinocandin analogues and preparation method therefor” (SHANGHAI SENHUI MEDICINE CO., LTD., priority 2019, dated 2025).

Data set [1] concerns Candida glabrata ATCC 36583. As to the kind of experiment: MIC assay (CLSI M27-A3), Candida glabrata ATCC 36583. The format is cell-based. Particulars: second batch. The protocol:
(§1) After a test compound was serially diluted, an MIC (minimum inhibitory concentration) assay was performed on the standard Candida strain and an MEC (minimum effective concentration) assay on the standard Aspergillus strain. The MIC assay was performed according to the guidelines of the Clinical and Laboratory Standards Institute (CLSI M27-A3) and the MEC assay according to the guidelines of the Clinical and Laboratory Standards Institute (CLSI M38-A2).
(§2) The frozen strain was passaged at least twice, and a single colony was picked and resuspended in normal saline or sterile water in a tube. The suspension was vortexed and adjusted to 0.5 McF (1×10^6 to 5×10^6 CFU/mL) using a spectrophotometer at wavelength 530 nm. The suspension was 50-fold diluted with normal saline and then 20-fold diluted with 1×RPMI 1640 broth (1×10^3 to 5×10^3 CFU/mL). 10 μL of the suspension was applied to an SDA plate for colony counting, with a range from about 10 to 50 single colonies.
(§3) At this time, the bacterium concentration in each well should be 0.5×10^3 to 2.5×10^3 CFU/mL.
(§4) For echinocandin drugs, Aspergillus was incubated at 28° C. for 21-26 h, and then the MEC results were read.
(§5) Yeast-type fungi: A disposable sealing film was applied to the 96-well plate, and the mixture was well mixed by shaking. Observation was performed through a plate reader with the naked eye. Comparisons were made to the growth control, and the minimum compound concentration corresponding to ≥50% growth inhibition was defined as MIC. Pictures were taken and saved using an automatic plate reader.

Data set [2] deals with Candida albicans (azole drug-resistant strain) R358. Kind of data set: MIC assay (CLSI M27-A3), Candida albicans azole drug-resistant strain R358. The format is cell-based. To be noted: second batch. The protocol: as §1, §2, §3, §4, §5
The next data set deals with Candida krusei ATCC 6258. As to the kind of experiment: MIC assay (CLSI M27-A3), Candida krusei ATCC 6258. In kind it is cell-based. The protocol: as §1, §2, §3, §4, §5
Data set [3] concerns Candida tropicalis (amphotericin-resistant strain) ATCC 200956. As to the kind of experiment: microbe, parasite or virus in culture. The format is cell-based. The protocol:
as §1, §2, §3, §4, §5

Data set [4] relates to Candida albicans ATCC 90029. As to the kind of experiment: MIC assay (CLSI M27-A3), Candida albicans ATCC 90029. To be noted: first batch, 24 h, 35° C., ≥50% growth inhibition. The format is cell-based. The method, then:
as §1, §2, §3, §4, §5

The test system of data set [5] is Candida parapsilosis ATCC 22019. As to the kind of experiment: MIC assay (CLSI M27-A3), Candida parapsilosis ATCC 22019. The format is cell-based. The protocol:
as §1, §2, §3, §4, §5

The subject of data set [6] is Candida albicans ATCC 90028. Kind of data set: MIC assay (CLSI M27-A3), Candida albicans ATCC 90028. In kind it is cell-based. Particulars: second batch; for MIC: Candida albicans, ATCC90028. The protocol:
as §1, §2
At this time, the bacterium concentration in each well should be 0.5×10^3 to 2.5×10^3 CFU/mL. […]
as §5

Data set [7] in a line: Plasma histamine assay after single intravenous injection in SD rats. The format is in vivo. The protocol:
(§6) 12 SD rats were divided into 2 groups of 6 (half are male and half female). […] The body weights were measured once before administration. Administration was performed by single intravenous injection for 20 min per animal. PK measurement was performed once before administration and 5 min, 30 min, 1 h, 4 h, 8 h, 24 h, 48 h, 72 h and 96 h after administration. A histamine assay was performed once before administration and 30 min, 4 h, 8 h and 24 h after administration.

In data set [8] the test system is Candida albicans ATCC 44858. As to the kind of experiment: MIC assay (CLSI M27-A3), Candida albicans ATCC 44858. In kind it is cell-based. To be noted: second batch. The method, then:
as §1, §2, §3, §4, §5

Data set [9] can be described thus: Pharmacokinetic study after single intravenous injection in SD rats. The format is in vivo. Particulars: 10 mg/kg single intravenous injection. The method, then:
as §6

Data set [10] concerns Candida albicans (azole drug-resistant strain) R357. As to the kind of experiment: MIC assay (CLSI M27-A3), Candida albicans azole drug-resistant strain R357. In kind it is cell-based. Particulars: second batch. The protocol:
as §1, §2, §3, §4, §5

The test system of data set [11] is Meyerozyma guilliermondii ATCC 6260. Kind of data set: MIC assay (CLSI M27-A3), Meyerozyma guilliermondii ATCC 6260. The format is cell-based. Particulars: first batch, 24 h, 35° C. The method, then:
as §1, §2, §3, §4, §5

Data set [12] concerns Candida tropicalis ATCC 750. As to the kind of experiment: MIC assay (CLSI M27-A3), Candida tropicalis ATCC 750. In kind it is cell-based. To be noted: first batch, 24 h, 35° C. The protocol:
as §1, §2, §3, §4, §5

Data set [13] relates to Candida glabrata ATCC 15126. As to the kind of experiment: MIC assay (CLSI M27-A3), Candida glabrata ATCC 15126. Particulars: first batch; 24 h, 35° C.; ≥50% growth inhibition. The format is cell-based. The method, then:
as §1, §2, §3, §4, §5

A short description of data set [14]: General state observation after single intravenous injection in SD rats. The format is in vivo. Particulars: 10 mg/kg single intravenous injection. The method, then:
as §6

For data set [15], the system named is Aspergillus flavus ATCC 28539. Kind of data set: MEC assay (CLSI M38-A2), Aspergillus flavus ATCC 28539. In kind it is cell-based. To be noted: first batch; 28° C., 21-26 h. The method, then: The MIC assay was performed according to the guidelines of the Clinical and Laboratory Standards Institute (CLSI M27-A3) and the MEC assay according to the guidelines of the Clinical and Laboratory Standards Institute (CLSI M38-A2).
Colonies on the plate were covered with about 1 mL of 0.85% normal saline or sterile water (polysorbate 20 was added at a final concentration of 0.1%-0.01%). […] The homogeneous upper layer of the suspension was transferred to a new sterile tube, which was then sealed and vortexed for 15 s (be careful as the suspension may produce an aerosol when the cover is removed). The concentration of the suspension was adjusted until an OD value of 0.09-0.13 was achieved using a spectrophotometer at 530 nm. […] 100 μL of sample was added to each well of the 96-well plate within 2 h after dilution (the final spore concentration in the susceptibility testing plate was at 0.4×10^4 to 5×10^4 CFU/mL).
Aspergillus: For echinocandin drugs, comparisons were made to the growth control under a plate reader, and the minimum drug concentration that could cause the hyphae to form small, round, compact hyphal particles was defined as MEC. For accurate determination of MEC values, the plate must not be vortexed before reading.

Where [16] appears, read: first batch, 24 h, 35° C., quality control strain.

Read-outs that look alike come from different tables or passages of the source.

Take `CCCCCOc1ccc(-c2ccc(-c3ccc(C(=O)N[C@H]4C[C@@H](O)[C@@H](OC[C@H]5CCC[N+]5(C)C)NC(=O)[C@@H]5[C@@H](O)[C@@H](C)CN5C(=O)[C@H]([C@@H](C)O)NC(=O)[C@H]([C@H](O)[C@@H](O)c5ccc(O)cc5)NC(=O)[C@@H]5C[C@@H](O)CN5C(=O)[C@H]([C@@H](C)O)NC4=O)cc3)cc2)cc1` [Example 13]: the MIC turned out to be 0.5 µg/mL in data set [1] (Nakaseomyces glabratus, ATCC36583, read-out: MIC, Candida glabrata ATCC 36583); 0.25 µg/mL in data set [2] (Candida albicans, read-out: MIC, Candida albicans (azole drug-resistant strain) R358); 0.047 µg/mL in the data set with Candida krusei ATCC 6258 (Pichia kudriavzevii, ATCC6258, 24 h, read-out: MIC, Candida krusei ATCC 6258); 0.25 µg/mL in [3] (Candida tropicalis, ATCC200956, read-out: MIC, Candida tropicalis (amphotericin-resistant strain) ATCC 200956); 0.031 µg/mL in [4] (Candida albicans, ATCC90029, read-out: MIC, Candida albicans ATCC 90029); 1 µg/mL in data set [5] (Lodderomyces parapsilosis, ATCC22019, 24 h, read-out: MIC, Candida parapsilosis ATCC 22019). Further, the MIC in data set [6] (24 h, 35° C., read-out: MIC, Candida albicans ATCC 90028) came to 0.25 µg/mL; in data set [6] (+ 50% human serum, read-out: MIC, Candida albicans + 50% human serum ATCC 90028), 0.25 µg/mL; in data set [8] (Candida albicans, ATCC44858, read-out: MIC, Candida albicans ATCC 44858), 0.25 µg/mL; in [10] (Candida albicans, read-out: MIC, Candida albicans (azole drug-resistant strain) R357), 0.5 µg/mL; in [11] (Meyerozyma guilliermondii, ATCC6260, read-out: MIC, Meyerozyma guilliermondii ATCC 6260), 1 µg/mL; in data set [12] (Candida tropicalis, ATCC750, read-out: MIC, Candida tropicalis ATCC 750), 0.016 µg/mL. The “ability to induce increases in the histamine level in rats” value in data set [7] (same dose (10 mg/kg), single intravenous injection, versus rezafungin acetate) was “significantly lower than that of rezafungin acetate”. Besides, the MRTIV in data set [9] (female SD rats) is 34.6 h; in data set [9] (male SD rats) it was 37.1 h.

The Cmax is the highest concentration seen after dosing. Take Rezafungin acetate: the “MIC, Candida glabrata ATCC 15126” value in [13] is 0.125 µg/mL. For the same compound, the “MIC, Candida glabrata ATCC 36583” value in data set [1] stood at 0.25 µg/mL. Also, in data set [2], the “MIC, Candida albicans (azole drug-resistant strain) R358” value came out at 0.25 µg/mL. Also, in the data set on Candida krusei ATCC 6258 (setting [16]), the “MIC, Candida krusei ATCC 6258” value was 0.25 µg/mL. The general state observation result in data set [14] was “transient slight decrease in activity”. The “MIC, Candida tropicalis (amphotericin-resistant strain) ATCC 200956” value in [3] (second batch) is 0.25 µg/mL. In addition, the “MIC, Candida albicans ATCC 90029” value in data set [4] was 0.125 µg/mL. The “MIC, Candida parapsilosis ATCC 22019” value in data set [5] (setting [16]) was found to be 2 µg/mL. Moreover, the “MIC, Candida albicans ATCC 90028” value in data set [6] (24 h, 35° C.) was 0.25 µg/mL. Besides, the “MIC, Candida albicans + 50% human serum ATCC 90028” value in [6] (+ 50% human serum) amounted to 0.25 µg/mL. Moreover, in [7] (SD rats, 10 mg/kg i.v., 30 min after administration, p=0.046), the “mean plasma histamine concentration relative to group 1” value is on record as 4.5 times. In [7] (SD rats, 10 mg/kg single intravenous injection), the “time at which plasma histamine concentration peaked” value worked out at 30 min. Further, the “mean histamine concentration in the plasma” value in data set [7] (SD rats, 10 mg/kg single intravenous injection, 30 min after administration) was 1333.0 ng/mL. Further, in data set [15], the “MEC, Aspergillus flavus ATCC 28539” value was determined as 0.031 µg/mL. In addition, the “MIC, Candida albicans ATCC 44858” value in data set [8] worked out at 0.25 µg/mL. Besides, in data set [9] (female SD rats), the AUC0-96 was determined as 205.8 µg·h/mL, the AUC0-inf was determined as 227.2 µg·h/mL, the CL was determined as 0.8 mL/min/kg and the Cmax came to 8600 ng/mL. Further, in data set [9] (female SD rats), the MRTIV is 39.1 h, the T1/2 turned out to be 27.9 h and the VdSS is listed as 1.8 L/kg. In addition, in [9] (male SD rats), the AUC0-96 was found to be 190.5 µg·h/mL, the AUC0-inf worked out at 212.1 µg·h/mL, the CL stood at 0.8 mL/min/kg and the Cmax was determined as 7800 ng/mL. In data set [9] (male SD rats), this compound gave an MRTIV of 38.4 h, a T1/2 of 28.0 h and a VdSS of 1.8 L/kg. Besides, the “MIC, Candida albicans (azole drug-resistant strain) R357” value in data set [10] amounted to 0.25 µg/mL. Further, the “MIC, Meyerozyma guilliermondii ATCC 6260” value in data set [11] is 2 µg/mL. Besides, the “MIC, Candida tropicalis ATCC 750” value in data set [12] stood at 0.016 µg/mL.
